Article PMC7470027, “Synthesis and structure-activity relationships of novel 5-(hydroxamic acid)methyl oxazolidinone derivatives as 5-lipoxygenase inhibitors” (Journal of Enzyme Inhibition and Medicinal Chemistry, 2020)

How the values were obtained:
[1] = test system: leukotriene (LT) biosynthesis / 5-LO; assay: Overall activity across the four in vitro test systems (three cell-based LT release assays and 5-LO)
Description: Furthermore, in order to confirm that the in vitro inhibitory activity of the compounds was not due to the direct toxic effects on the cells, the effect of the compounds on the viability of isolated human monocytes after 3 h and 24 h treatment was performed. Finally, in vivo anti-inflammatory studies were performed using the zymosan-induced peritoneal inflammation model in mice, which is a well-known model in which the LTs are known to play a critical role[26].
The inhibitory activity data for the tested compounds obtained in three cell-based in vitro test systems - LTB4 release from human whole blood, LTC4 release from isolated human monocytes and LTC4 release from IgE/antigen-activated mouse mast cells, are shown in Table 1. Similar data on the direct inhibitory effect on the enzymatic activity of recombinant human 5-LO, together with the calculated Clog P (log of partition coefficient) values, which is an indication of the lipophilicity of each compound, are also shown in Table 1.

[2] = test system: 5-LO product LTC4 from allergen/IgE-activated bone marrow-derived mouse mast cells (BMMC); assay: Inhibition of 5-LO product LTC4 from allergen/IgE-activated bone marrow-derived mouse mast cells (BMMC); type: cell-based; details: Mus musculus; anti-DNP IgE/DNP-BSA-activated BMMC; 95% confidence interval in brackets; read-out: Mouse mast cell LTC4 IC50 (CI)
Description: Bone marrow-derived mast cells (BMMC) were generated from pathogen-free 5 to 7-weeks-old male Balb/c mice according to the method of Davis et al.[28]. Essentially, bone marrow cells were obtained by flushing the femoral bone marrow and the recovered cells cultured in RPMI 1640 medium supplemented with 10% FBS, 100 U/ml penicillin, and 100 µg/ml streptomycin, 25 mM HEPES, 1.0 mM sodium pyruvate, 0.1 mM nonessential amino acids, 0.0035% 2-mercaptoethanol, and 30 ng/ml mouse recombinant IL-3, with culture medium, replaced every 2 days. Cells were used after 4–8 weeks of culture, by which time at least 97% of the cells would have differentiated into mast cells, as routinely obtained in our laboratory.
The generated BMMCs were seeded at 5 × 10^4 cells/well in a 96-well flat-bottom culture plate and passively sensitised overnight with 0.5 µg/ml anti-DNP monoclonal IgE antibody. The cells were then washed twice to remove any unbound antibody and subsequently resuspended in reaction buffer (135 mM NaCl, 5 mM KCl, 1.8 mM CaCl2, 1 mM MgCl2, 5.6 mM glucose, 0.05% BSA and 20 mM HEPES, pH 7.4). They were then pre-incubated with the test compounds (0.001 − 30 μM) or the solvent (0.05% DMSO) for 15 min before being stimulated with the specific antigen, DNP-BSA (10–30 ng/ml). After 30 min incubation at 37 °C, the amount of LTC4 released into the supernatant was determined by ELISA as described below.
(§1) Appropriately diluted supernatants were assayed for the released products – LTs (LTB4 and LTC4), by the enzyme immunoassay (EIA) method using assay kits supplied by R&D Systems (Minneapolis, MN) and following the manufacturer’s instructions.
(§2) All data were analysed using GraphPad Prism software (GraphPad Software, San Diego, CA). […] Differences between experimental groups were first analysed by one-way ANOVA, followed by Bonferroni’s post-hoc test. A p-value of less than 0.05 was taken as statistically significant.

[3] = test system: zymosan-induced peritoneal inflammation; assay: Zymosan-induced peritoneal inflammation model in mice; type: in vivo, mouse; details: for Inhibition of total LTC4 content of the peritoneal lavage fluid: p < 0.001 vs zymosan plus vehicle
Description: Female Balb/c mice 6 to 8-weeks-old obtained from the Animal Resources Centre of the Health Sciences Centre, Kuwait University, were used. They were maintained under temperature-controlled conditions with an artificial 12-h light/dark cycle and allowed standard chow and water ad libitum. The study was carried out in compliance with the Regulations for the Use of Laboratory Animals in the Health Sciences Centre, Kuwait University, and complied with the National Institute of Health guide for the care and use of laboratory animals (NIH Publication # 8023, revised 1978). The zymosan-induced peritonitis model - a recognised LT-mediated inflammatory reaction, was used. […] After 30 min, all groups were injected intraperitoneally with 0.2 ml of activated zymosan (2 mg/ml) except the control group that received 0.2 ml PBS. After 2 h, all animals were killed, and the peritoneal exudate collected by washing the cavity with 3 ml of heparinised (10 IU/ml) PBS. Cells in the exudate were recovered by centrifugation and counted in a haemocytometer while the supernatant volume was recorded and then stored frozen at −78 °C until used for the determination of LTC4 by ELISA as detailed above.

[4] = test system: 5-LO-dependent generation of LTB4 from activated human whole blood; assay: Inhibition of 5-LO product LTB4 from activated human whole blood (LPS/FMLP); type: cell-based; details: LPS-primed, FMLP-stimulated human whole blood; 95% confidence interval in brackets; read-out: Human whole blood LTB4 IC50 (CI)
Description: All compounds were evaluated for inhibitory activity against the 5-LO-dependent generation of LTB4 from activated human whole blood. With ethical approval from the Health Sciences Centre Ethical Committee of Kuwait University, heparinised fresh human blood samples from apparently healthy individuals of both sexes were obtained from the Kuwait Central Blood Bank. All donors gave informed consent and the work was carried out in accordance with the “Declaration of Helsinki” for experiments involving human subjects. Aliquots of 185 µl of whole blood were dispensed into each well of a 96-well culture plate containing 5 µl of the priming agent, LPS (1 µg/ml final concentration). […] After further incubation for 15 min at 37 °C, 5 µl of FMLP (1 µM final concentration) was added to stimulate LT production. The reaction was stopped 15 min later, and the supernatants were recovered by centrifugation and stored at −40 °C pending analysis of LTB4 content.
as §1, §2

isolated human monocytes = assay: In vitro toxicity testing, MTT viability; type: cell-based; details: concentrations up to 50 μM, 3 h or 24 h
Description: Adherent human monocytes, prepared as described above were cultured with various concentrations of the test compounds or vehicle, or with 0.05% Triton-X as a positive control for 3 h or 24 h. At the end of the culture, cell viability was determined using the standard MTT assay method. Briefly, 15 μL of the MTT solution (5 mg/ml) was added to each well and incubated at 37 °C for 4 h. After removing the supernatant, 200 μL of DMSO was added to dissolve the crystals. Absorbance at 570 nm was then measured in a microplate reader. Viability was expressed as a percentage of the vehicle-treated cells.

[5] = test system: 5-LO product LTC4 from isolated human monocytes; assay: Inhibition of 5-LO product LTC4 from isolated human monocytes (A23187); type: cell-based; details: Monocyte, calcium ionophore A23187, 95% confidence interval in brackets, read-out: Human monocyte LTC4 IC50 (CI)
Description: Mononuclear cells were first isolated from heparinised blood using the Ficoll-Hypaque gradient centrifugation method. Monocytes were subsequently purified by adherence to plastic according to standard protocols. The purity of the adherent monocytes (CD14+) was routinely confirmed by flow cytometry to be >95% and viability (by trypan blue exclusion method) was routinely >97%. Adherent monocytes were then washed and incubated in 190 µl culture medium RPMI-1640 supplemented with 100 U/ml penicillin, 100 µg/ml streptomycin and 10% heat-inactivated foetal bovine serum (Sigma-Aldrich, St Louis, MO). […] After further incubation for 15 min, the culture supernatants were recovered by centrifugation and stored at −40 °C pending LTC4 determination.
as §1, §2

[6] = 10 mg/kg subcutaneously 30 min before zymosan

CCCCCCC(=O)N(O)C[C@H]1CN(c2ccc(N3CCOCC3)c(F)c2)C(=O)O1 [PH-249, (R)-N-((3-(3-fluoro-4-morpholinophenyl)-2-oxooxazolidin-5-yl)methyl)-N-hydroxyheptanamide]
Activity across the in vitro test systems (in words) ([1]; cell-based systems and cell-free 5-LO): active in all four test systems | IC50 ([1]; summary statements, in vitro test systems, read-out: IC50 (test system not specified / across test systems)): < 1 µM | IC50 [2]: 1.3 µM | Inhibition of cellular infiltration (total cellular content of peritoneal lavage) [3, 6]: only the inhibition by the higher dose reached statistical significance | Inhibition of total LTC4 content of the peritoneal lavage fluid [3, 6]: highly significant inhibition | Inhibition of total LTC4 content of the peritoneal lavage fluid ([3]; 30 mg/kg subcutaneously 30 min before zymosan): highly significant inhibition | Inhibition of cellular infiltration (total cellular content of peritoneal lavage) ([3]; 30 mg/kg subcutaneously 30 min before zymosan, p < 0.01 vs zymosan plus vehicle): reached statistical significance | IC50 [4]: 0.7 µM | Effect on viability of isolated human monocytes (MTT) (isolated human monocytes): no significant effect on cell viability | IC50 [5]: 0.9 µM
